According to patent US4443605A, “7β-Arylalkyl-6α, 7 α-oxymethylene-3-methoxy or 3-hydroxy-4, 5α-epoxy-17 methyl or 17-cycloalkyl-methyl morphinans” (Miles Laboratories, Inc., priority 1982, dated 1984):
Where two headings read alike, the source gives them in different places.

Tested on: mice
Assay: Acetic Acid Induced Mouse Writhing Test
Assay type: in vivo, mouse (male CD-1)
Conditions: for ED50: sc
Protocol: Analgesic effects of the test compounds were determined in mice by use of the acetic acid induced writhing test described by B. A. Whittle, Brit. J. Pharmacol., 22:246 (1964). In this test, at least 3 groups of 5 male CD-1 mice each were given subcutaneous doses of the test drug dissolved in distilled water. In all cases, 0.4 mL of a 0.5% v/v acetic acid in distilled water solution was administered intraperitoneally 15 min. post drug. The number of writhes in a 20 min. interval beginning 5 min. after the acetic acid injection were determined and compared with the number of writhes in a control group which had received only acetic acid.
Percent inhibition of writhing was calculated as: [formula]
The ED50 dose, i.e., the dose required to reduce the number of writhes by 50%, was determined graphically from a plot of % inhibition as a probit verus log dose. […] See Lichtfield, J. T. and Wilcoxon, F., J. Pharmacol. Exp. Ther., 96, 99-113 (1949).
The results of this testing, both in terms of μ mole/kg and mg/kg of the compound tested, are set out in table I.

[1] = 0.25 h, Analgesic Activity In Mouse Writhing Assay - Subcutaneous Inj., acetic acid i.p. 15 min post drug, * = d-tartrate salt, read-out: ED50 (mg/kg)
[2] = 0.25 h, Analgesic Activity In Mouse Writhing Assay - Subcutaneous Inj., acetic acid i.p. 15 min post drug, * = d-tartrate salt, read-out: ED50 (μmole/kg)

SMILES	activity in the acetic acid induced writhing assay (at 10 mg/kg)	ED50 [1] [mg/kg]	ED50 [2] [µmol/kg]	ED50 (Mus musculus, acetic acid induced writhing assay, contrasted with compound 8, read-out: ED50 in the same assay) [mg/kg]
COc1ccc2c3c1O[C@H]1[C@@H]4OC[C@]4(CCCCc4ccccc4)C[C@H]4[C@@H](C2)N(C)CC[C@@]341 [Compound 8, 4,5α-Epoxy-3-methoxy-17-methyl-7α-(4-phenylbutyl)-6β,7β-(oxymethylene)-morphinan]	inactive	–	–	–
COc1ccc2c3c1O[C@H]1[C@H]4OC[C@@]4(CCc4ccccc4)C[C@H]4[C@@H](C2)N(C)CC[C@@]341 [Compound 17c]	–	0.5	0.9	–
COc1ccc2c3c1O[C@H]1[C@H]4OC[C@@]4(CCCc4ccccc4)C[C@H]4[C@@H](C2)N(C)CC[C@@]341 [Compound 17d]	–	0.027	0.046	–
COc1ccc2c3c1O[C@H]1[C@H]4OC[C@@]4(CCCCc4ccccc4)C[C@H]4[C@@H](C2)N(C)CC[C@@]341 [Compound 17e]	–	0.0028	0.005	0.003
COc1ccc2c3c1O[C@H]1[C@H]4OC[C@@]4(CCCCCc4ccccc4)C[C@H]4[C@@H](C2)N(C)CC[C@@]341 [Compound 17f]	–	0.82	1.3	–
CN1CC[C@]23c4c5ccc(O)c4O[C@H]2[C@H]2OC[C@@]2(CCc2ccccc2)C[C@H]3[C@H]1C5 [Compound 20c]	–	0.024	0.048	–
CN1CC[C@]23c4c5ccc(O)c4O[C@H]2[C@H]2OC[C@@]2(CCCc2ccccc2)C[C@H]3[C@H]1C5 [Compound 20d]	–	0.011	0.019	–
CN1CC[C@]23c4c5ccc(O)c4O[C@H]2[C@H]2OC[C@@]2(CCCCc2ccccc2)C[C@H]3[C@H]1C5 [Compound 20e]	–	0.014	0.024	–
CN1CC[C@]23c4c5ccc(O)c4O[C@H]2[C@H]2OC[C@@]2(CCCCCc2ccccc2)C[C@H]3[C@H]1C5 [Compound 20f]	–	0.017	0.028	–
COc1ccc2c3c1O[C@H]1[C@H]4OC[C@@]4(CCc4ccccc4)C[C@H]4[C@@H](C2)N(CC2CCC2)CC[C@@]341 [Compound 23Bc]	–	> 10	> 16	–
COc1ccc2c3c1O[C@H]1[C@H]4OC[C@@]4(CCCc4ccccc4)C[C@H]4[C@@H](C2)N(CC2CCC2)CC[C@@]341 [Compound 23Bd]	–	2.8	4.4	–
COc1ccc2c3c1O[C@H]1[C@H]4OC[C@@]4(CCCCc4ccccc4)C[C@H]4[C@@H](C2)N(CC2CCC2)CC[C@@]341 [Compound 23Be]	–	1.8	2.8	–
COc1ccc2c3c1O[C@H]1[C@H]4OC[C@@]4(CCc4ccccc4)C[C@H]4[C@@H](C2)N(CC2CC2)CC[C@@]341 [Compound 23Pc]	–	0.26	0.57	–
COc1ccc2c3c1O[C@H]1[C@H]4OC[C@@]4(CCCc4ccccc4)C[C@H]4[C@@H](C2)N(CC2CC2)CC[C@@]341 [Compound 23Pd]	–	0.67	1.07	–
COc1ccc2c3c1O[C@H]1[C@H]4OC[C@@]4(CCCCc4ccccc4)C[C@H]4[C@@H](C2)N(CC2CC2)CC[C@@]341 [Compound 23Pe]	–	0.39	0.61	–
Oc1ccc2c3c1O[C@H]1[C@H]4OC[C@@]4(CCc4ccccc4)C[C@H]4[C@@H](C2)N(CC2CCC2)CC[C@@]341 [Compound 24Bc]	–	0.177	0.39	–
Oc1ccc2c3c1O[C@H]1[C@H]4OC[C@@]4(CCCc4ccccc4)C[C@H]4[C@@H](C2)N(CC2CCC2)CC[C@@]341 [Compound 24Bd]	–	0.0375	0.06	–
Oc1ccc2c3c1O[C@H]1[C@H]4OC[C@@]4(CCCCc4ccccc4)C[C@H]4[C@@H](C2)N(CC2CCC2)CC[C@@]341 [Compound 24Be]	–	0.22	0.05	–
Oc1ccc2c3c1O[C@H]1[C@H]4OC[C@@]4(CCc4ccccc4)C[C@H]4[C@@H](C2)N(CC2CC2)CC[C@@]341 [Compound 24Pc]	–	0.018	0.04	–
Oc1ccc2c3c1O[C@H]1[C@H]4OC[C@@]4(CCCc4ccccc4)C[C@H]4[C@@H](C2)N(CC2CC2)CC[C@@]341 [Compound 24Pd]	–	0.0015	0.003	–
Oc1ccc2c3c1O[C@H]1[C@H]4OC[C@@]4(CCCCc4ccccc4)C[C@H]4[C@@H](C2)N(CC2CC2)CC[C@@]341 [Compound 24Pe]	–	0.01	0.015	–
